Test [1] concerns the target KRAS G13D (Homo sapiens, UniProt P01116, G13D). The experiment in a line: SOS-catalyzed nucleotide exchange assay, KRAS G13D (Procedure A). The test is classed as biochemical. The conditions noted are these: GNE. An excerpt: (§1) Procedure for SOS-Catalyzed Nucleotide Exchange Assay for KRAS-WT, G12C/D/V, G13D, HRAS, and NRAS (Procedure A)
(§2) Recombinant KRAS-G12C protein used in this assay has an additional triple mutation (C51S/C80L/C118S). Whereas KRAS-WT, G12D/V, G13D, HRAS and NRAS are in context of their WT protein sequence background. Specifically, the SOS-catalyzed nucleotide exchange assay utilizes a preformed TR-FRET complex containing a specific biotinylated RAS protein (KRAS-WT, G12C/V/D, G13D, HRAS, NRAS; described above) with Bodipy-GDP, and Terbium-streptavidin. Compounds are preincubated with this complex for 60 minutes. Subsequently, recombinant human SOS protein and unlabeled GTP are added to initiate the exchange reaction. Small molecule inhibitors stabilize the Bodipy-GDP complex whereas the untreated protein rapidly exchanges Bodipy-GDP for unlabeled GTP resulting in reduced TR-FRET signal.
(§3) To assemble the preformed TR-FRET complexes, each biotinylated RAS protein is diluted to 2 μM in an EDTA Buffer (20 mM HEPES pH 7.5, 50 mM sodium chloride, 10 mM EDTA, and 0.01% Tween) and incubated at room temperature for one hour. This mixture is then further diluted to 90 nM in an Assay Buffer (20 mM HEPES pH 7.5, 150 mM sodium chloride, 10 mM magnesium chloride, and 0.005% Tween) containing 15 nM of Terbium-Streptavidin (Invitrogen, catalog #PV3577) and 900 nM of Bodipy-GDP (Invitrogen, catalog #G22360) and incubated at room temperature for six hours. It should be noted that this preformed TR-FRET complex for each of the RAS protein were made ahead of time, aliquoted and stored at −80° C. until the day of the experiment.
(§4) Each test compound (10 mM stock in DMSO) is diluted in DMSO to make a final-10-point, 3-fold dilution and is acoustically dispensed into a 384-well assay plate (Corning, catalog #3820) using an Echo 550 (Labcyte). Each well of the assay plate receives 3 μL of a specific 3×RAS preformed TR-FRET complex and 3 μL of Assay Buffer and is incubated at room temperature for 60 minutes (preincubation time). Each well then receives 3 μL of 3× recombinant human SOS protein and GTP (Sigma, G8877) in Assay Buffer and is incubated at room temperature for 30 minutes (G13D), 60 minutes (KRAS WT/G12C/D, H/NRAS) or 90 minutes for G12V. The final reaction in each well of 9 μL consists of 3 mM GTP, specific Ras and SOS proteins in the following concentrations: KRAS-G12C/SOS=3 nM/40 nM, KRAS-WT and G12D/SOS=1 nM/40 nM, KRAS-G12V/SOS=1.25 nM/160 nM, KRAS-G13D/SOS=1.25 nM/0 nM, HRAS and NRAS=1.25 nM/40 nM.
(§5) The time-resolved fluorescence resonance energy transfer (TR-FRET) signal is measured on an Envision (PerkinElmer) plate reader: Excitation filter=340 nm; emission1=495 nm; emission2=520 nm; dichroic mirror=D400/D505; delay time=[…]. The signal of each well is determined as the ratio of the emission at 520 nm to that at 495 nm. Percent effect of each well is determined after normalization to control wells containing DMSO (no effect) or a saturating concentration of inhibitor (max effect). The apparent effect as a function of compound concentration is fit to a four-parameter logistic equation.
(§6) For Example No. 14, nucleotide exchange assays for KRAS G12D, WT, G12C, and G12V were performed according to Procedure B. All the other compounds were tested according to Procedure A.

Test [2] deals with KRAS G12V (Homo sapiens, UniProt P01116, G12V). The test can be described thus: SOS-catalyzed nucleotide exchange assay, KRAS G12V (Procedure A). The test is classed as biochemical. The conditions noted are these: GNE. Put shortly:
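Biotinylated KRAS G12V was loaded with Bodipy-GDP alongside Terbium-streptavidin to form a TR-FRET complex, which was preincubated with compounds for 60 minutes in 384-well plates. Human SOS protein and unlabeled GTP were then added for 90 minutes, giving final concentrations of 1.25 nM KRAS-G12V, 160 nM SOS and 3 mM GTP. The 520/495 nm emission ratio was read on an Envision.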

Test [3] addresses HRAS (Homo sapiens, UniProt P01112). The test can be described thus: SOS-catalyzed nucleotide exchange assay, HRAS (Procedure A). The conditions noted are these: GNE. The test is classed as biochemical.
Description: as §1, §2, §3, §4, §5, §6

For test [4], the target named is NRAS (Homo sapiens, UniProt P01111). The test can be described thus: SOS-catalyzed nucleotide exchange assay, NRAS (Procedure A). The test is classed as biochemical. The settings on record: GNE.
Chain of NRAS (P01111 with tags, fused parts or gaps): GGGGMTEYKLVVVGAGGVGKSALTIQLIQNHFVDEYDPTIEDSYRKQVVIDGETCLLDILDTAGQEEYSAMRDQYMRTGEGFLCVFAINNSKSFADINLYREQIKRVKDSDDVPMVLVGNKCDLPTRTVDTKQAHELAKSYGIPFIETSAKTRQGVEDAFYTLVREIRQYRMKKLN
Description: as §1, §2, §3, §4, §5, §6

Test [5] concerns the target KRAS WT (Homo sapiens, UniProt P01116). The test can be described thus: SOS-catalyzed nucleotide exchange assay, KRAS WT (Procedure A). The test is classed as biochemical. The conditions noted are these: GNE. Put shortly:
(§7)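 Compounds were preincubated 60 min with a biotinylated RAS·Bodipy-GDP/Tb-streptavidin TR-FRET complex, and exchange was started with human SOS plus 3 mM GTP at RT. RAS/SOS: G12C 3 nM/40 nM, WT and G12D 1 nM/40 nM, all 60 min; G13D 1.25 nM/0 nM, 30 min. 520/495 ratio normalized to DMSO and saturating inhibitor, four-parameter fit.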

The target of test [6] is KRAS G12D (Homo sapiens, UniProt P01116, G12D). The experiment in a line: SOS-catalyzed nucleotide exchange assay, KRAS G12D (Procedure A). The test is classed as biochemical. The settings on record: guanine nucleotide exchange (GNE). In a few lines: as §7
Chain of KRAS G12D (P01116 with tags, fused parts or gaps isoform P01116-2 G12D): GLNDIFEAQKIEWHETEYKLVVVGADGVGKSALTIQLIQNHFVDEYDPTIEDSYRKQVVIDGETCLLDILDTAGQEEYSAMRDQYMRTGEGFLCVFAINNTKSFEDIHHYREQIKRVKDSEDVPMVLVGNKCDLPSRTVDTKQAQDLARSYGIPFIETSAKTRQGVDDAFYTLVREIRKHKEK
For test [7], the target named is KRAS G12C (Homo sapiens, UniProt P01116, C118S/C51S/C80L/G12C). The test can be described thus: SOS-catalyzed nucleotide exchange assay, KRAS G12C (Procedure A). The test is classed as biochemical. The conditions noted are these: GNE.
Chain of KRAS G12C (P01116 with tags, fused parts or gaps isoform P01116-2 G12C/C51S/C80L/C118S): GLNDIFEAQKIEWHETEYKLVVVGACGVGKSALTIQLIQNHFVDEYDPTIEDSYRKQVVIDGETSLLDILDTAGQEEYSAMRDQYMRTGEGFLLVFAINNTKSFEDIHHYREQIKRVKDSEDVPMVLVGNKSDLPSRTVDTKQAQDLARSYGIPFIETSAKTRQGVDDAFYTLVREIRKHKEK
Description: as §1, §2, §3, §4, §5, §6

For test [8], the target named is T1, AsPC-1 cells (Homo sapiens, UniProt P01116, G12D).
T1 construct: p-ERK/total ERK AlphaSureFire read-out
T1 sequence (P01116 1-188 isoform P01116-2 G12D): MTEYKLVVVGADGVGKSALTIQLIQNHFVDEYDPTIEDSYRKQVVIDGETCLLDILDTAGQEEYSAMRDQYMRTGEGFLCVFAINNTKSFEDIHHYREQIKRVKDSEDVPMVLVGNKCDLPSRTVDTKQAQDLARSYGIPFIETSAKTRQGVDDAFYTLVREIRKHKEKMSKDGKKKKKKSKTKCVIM
The test can be described thus: Cellular phospho-ERK assay, AsPC-1 cells (KRAS G12D). The test is classed as cell-based. The conditions noted are these: 2 hours, read-out: AsPC1 pERK IC50. In a few lines:
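PANC08.13 or AsPC-1 cells (homozygous KRAS G12D) were seeded overnight, then treated for 2 h at 37 °C with a 10-point 1:3 titration from 30 μM. Lysates were assayed by AlphaLISA SureFire for p-ERK and total ERK. IC50 came from a 4-parameter fit of the p-ERK/total ERK ratio.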

Eight molecules from patent US20260347372A1, “SMALL MOLECULE INHIBITORS OF KRAS G12D MUTANT” (MERCK SHARP & DOHME LLC, priority 2023, published 2026) can be followed below.

Chain of KRAS WT (P01116 with tags, fused parts or gaps isoform P01116-2): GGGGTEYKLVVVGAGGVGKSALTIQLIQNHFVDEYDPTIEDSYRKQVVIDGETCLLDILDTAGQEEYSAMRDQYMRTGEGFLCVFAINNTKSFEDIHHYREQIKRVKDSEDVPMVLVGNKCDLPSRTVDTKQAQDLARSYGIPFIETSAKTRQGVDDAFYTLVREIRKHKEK
Chain of KRAS G13D (P01116 with tags, fused parts or gaps isoform P01116-2 G13D): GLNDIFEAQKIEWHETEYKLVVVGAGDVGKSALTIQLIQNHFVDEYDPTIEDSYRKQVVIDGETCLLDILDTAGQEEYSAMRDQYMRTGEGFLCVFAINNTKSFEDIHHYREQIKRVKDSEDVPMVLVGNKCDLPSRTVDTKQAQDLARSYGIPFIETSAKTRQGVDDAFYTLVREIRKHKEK
Chain of KRAS G12V (P01116 with tags, fused parts or gaps isoform P01116-2 G12V): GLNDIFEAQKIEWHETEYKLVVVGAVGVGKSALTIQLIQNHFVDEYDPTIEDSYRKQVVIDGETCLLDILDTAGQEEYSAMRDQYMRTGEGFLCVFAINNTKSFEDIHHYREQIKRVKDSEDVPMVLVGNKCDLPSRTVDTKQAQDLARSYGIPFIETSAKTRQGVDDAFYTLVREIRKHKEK
Chain of HRAS (P01112 with tags, fused parts or gaps): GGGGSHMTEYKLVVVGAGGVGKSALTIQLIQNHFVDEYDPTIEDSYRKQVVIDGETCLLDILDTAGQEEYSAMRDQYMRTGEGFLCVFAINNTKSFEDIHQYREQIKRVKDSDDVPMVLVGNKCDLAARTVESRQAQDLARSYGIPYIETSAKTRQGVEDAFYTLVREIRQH

A word on the IC50: it is the midpoint of a concentration-inhibition curve. Consider `Cc1cc2[nH]ncc2c(-c2nccc3c2sc2nc(OC[C@]4(C#N)C[C@H]4S(C)(=O)=O)nc(N4C[C@H]5CC[C@@H](C4)N5)c23)c1C(F)(F)F` [Ex-32, (1R,2R)-1-(((4-((1R,5S)-3,8-diazabicyclo[3.2.1]octan-3-yl)-8-(6-methyl-5-(trifluoromethyl)-1H-indazol-4-yl)pyrido[4′,3′:4,5]thieno[2,3-d]pyrimidin-2-yl)oxy)methyl)-2-(methylsulfonyl)cyclopropane-1-carbonitrile], for which the IC50 in test [1] was above 11100 nM; in test [2], above 11100 nM; in test [3] it was above 11100 nM; in test [4] it was above 11100 nM; in test [5] it was above 11100 nM; in test [6], 1020 nM. Further, the IC50 in test [7] is above 11100 nM; in test [8] it was above 30000 nM.
`Cc1cc2[nH]ncc2c(-c2nccc3c2sc2nc(OC[C@@]45CCCN4C[C@H](F)C5)nc(N4C[C@H]5C[C@@H]4CN5)c23)c1C(F)(F)F` [Ex-70, 4-((1R,4R)-2,5-diazabicyclo[2.2.1]heptan-2-yl)-2-(((2R,7aS)-2-fluorotetrahydro-1H-pyrrolizin-7a(5H)-yl)methoxy)-8-(6-methyl-5-(trifluoromethyl)-1H-indazol-4-yl)pyrido[4′,3′:4,5]thieno[2,3-d]pyrimidine]: the half-inhibitory concentration (IC50) in test [1] was 2260 nM; in test [2], 9750 nM; in test [3], above 11100 nM; in test [4], above 11100 nM; in test [5] it was 7500 nM; in test [6] it was 836 nM. Further, the figures for the half-maximal inhibitory concentration (IC50) in test [7] and in test [8] were 948 nM and 5110 nM, respectively.
As to `Cc1cc2[nH]ncc2c(-c2nccc3c2sc2nc(OCC4(C)CS(=O)(=O)C4)nc(N4C[C@H]5CC[C@@H](C4)N5)c23)c1C(F)(F)F` [Ex-39, 3-(((4-((1R,5S)-3,8-diazabicyclo[3.2.1]octan-3-yl)-8-(6-methyl-5-(trifluoromethyl)-1H-indazol-4-yl)pyrido[4′,3′:4,5]thieno[2,3-d]pyrimidin-2-yl)oxy)methyl)-3-methylthietane 1,1-dioxide], the IC50 is above 11100 nM in test [1]; above 11100 nM in test [2]; above 11100 nM in test [3]; above 11100 nM in test [4]; above 11100 nM in test [5]; 2420 nM in test [6]. Further, the IC50 is above 11100 nM in test [7] and 12800 nM in test [8].
`Cc1cc2[nH]ncc2c(-c2nncc3c2sc2nc(OC[C@@]45CCCN4C[C@H](F)C5)nc(N4C[C@H]5CC[C@@H](C4)N5)c23)c1C(F)(F)F` [Ex-77, 4-((1R,5S)-3,8-diazabicyclo[3.2.1]octan-3-yl)-2-(((2R,7aS)-2-fluorotetrahydro-1H-pyrrolizin-7a(5H)-yl)methoxy)-8-(6-methyl-5-(trifluoromethyl)-1H-indazol-4-yl)pyrimido[5′,4′:4,5]thieno[2,3-d]pyridazine]: the IC50 in test [1] was 374 nM; in test [2], 2320 nM; in test [3] it was above 11100 nM; in test [4], above 11100 nM; in test [5] it was 4840 nM; in test [6] it was 17.1 nM. Further, the values for the IC50 in test [7] and in test [8] were 334 nM and 726 nM, respectively.
As to `C#Cc1c(F)ccc2cc3[nH]ncc3c(-c3nccc4c3sc3nc(OC[C@]5(CO)CC5(F)F)nc(N5C[C@H]6CC[C@@H](C5)N6)c34)c12` [Ex-109, ((1R)-1-(((4-((1R,5S)-3,8-diazabicyclo[3.2.1]octan-3-yl)-8-(5-ethynyl-6-fluoro-1H-benzo[f]indazol-4-yl)pyrido[4′,3′:4,5]thieno[2,3-d]pyrimidin-2-yl)oxy)methyl)-2,2-difluorocyclopropyl)methanol], the IC50 in test [2] was above 11100 nM; in test [5] it was above 11100 nM; in test [6] it was 25.9 nM; in test [8], 1010 nM.
In the case of `C#Cc1c(F)ccc2cc3[nH]ncc3c(-c3nccc4c3sc3nc(OC[C@@]56CCCN5C/C(=C\F)C6)nc(N5C[C@H]6CC[C@@H](C5)N6)c34)c12` [Ex-89, 4-((1R,5S)-3,8-diazabicyclo[3.2.1]octan-3-yl)-8-(5-ethynyl-6-fluoro-1H-benzo[f]indazol-4-yl)-2-(((S,Z)-2-(fluoromethylene)tetrahydro-1H-pyrrolizin-7a(5H)-yl)methoxy)pyrido[4′,3′:4,5]thieno[2,3-d]pyrimidine], the IC50 in test [2] came out at 48.8 nM; in test [5], 32.8 nM; in test [6], 1.67 nM; in test [8] it was 8.18 nM.
For `C#Cc1c(F)ccc2cc3[nH]ncc3c(-c3nccc4c3sc3nc(OCC5(C(=O)NC)CC5)nc(N5C[C@H]6CC[C@@H](C5)N6)c34)c12` [Ex-91, 1-(((4-((1R,5S)-3,8-diazabicyclo[3.2.1]octan-3-yl)-8-(5-ethynyl-6-fluoro-1H-benzo[f]indazol-4-yl)pyrido[4′,3′:4,5]thie-no[2,3-d]pyrimidin-2-yl)oxy)methyl)-N-methylcyclopropane-1-carboxamide], the concentration for half-maximal inhibition (IC50) in test [2] is above 11100 nM; in test [5], above 11100 nM; in test [6], 50.6 nM; in test [8], 5030 nM.
Consider `Cc1cc2[nH]ncc2c(-c2nccc3c2sc2nc(OC[C@@]45CCCN4C[C@H](F)C5)nc(N4C[C@H]5CC[C@@H](C4)N5CC(C)O)c23)c1C(F)(F)F` (stereo partly drawn) [Ex-113, 1-((1R,5S)-3-(2-(((2R,7aS)-2-fluorotetrahydro-1H-pyrrolizin-7a(5H)-yl)methoxy)-8-(6-methyl-5-(trifluoromethyl)-1H-indazol-4-yl)pyrido[4′,3′:4,5]thieno[2,3-d]pyrimidin-4-yl)-3,8-diazabicyclo[3.2.1]octan-8-yl)propan-2-ol], for which the IC50 in test [2] is 1850 nM; in test [5], 1110 nM; in test [6] it was 492 nM; in test [8], 2380 nM.
